Read-outs that look alike come from different tables or passages of the source. Marks after values point to notes of the source that are not given here.
Tests used:
[1] = system: Madin-Darby canine kidney (MDCK) cells; conditions: cells lacking contact inhibition by action of HGF; cited from earlier work
[2] = system: ERK1/2
Method: In each of 6-well plates, 5×10^5 LLC-PK1 cells were seeded. The cells were divided into three groups on the following day (0 day). […] Then the media (D) and (U) were replaced with a DMEM-HG medium. The cells of each group were further cultured for three days. The cells were subjected to Western blot analysis for ERK1/2 on 0 day, the first day, the second day, the third day, and the sixth day.
The cultured LLC-PK1 cells were used in the form of a cytolytic solution for Western blot analysis. The sampled cells of each group were rinsed with ice-chilled PBS and were then centrifuged at 4° C. for five minutes at 1500 rpm. The centrifugate was collected and then maintained at −80° C.
Proteins were taken from 50 μL of each of ice-chilled cytolytic solutions containing 20 mM Tris-HCl (pH 7.5), 150 mM NaCl, 1 mM Na2EDTA, 1 mM EGTA, 1% Triton, 2.5 mM sodium pyrophosphate, 1 mM β-glycerophosphate, 1 mM Na3VO4 (sodium orthovanadate), and 1 μg/ml leupeptin. The proteins were centrifuged at 4° C. for 15 minutes at 15000×g, whereby soluble proteins were extracted. The protein concentration of each cytolytic solution was measured with a protein assay kit (Protein Assay Rapid Kit; Wako, Osaka, Japan). […] Proteins (20 μg) in each LLC-PK1 cytolytic solution were analyzed with SDS-PAGE (polyacrylamide gel electrophoresis) using a 12.5% polyacrylamide gel (e-PAGEL; ATTO, Tokyo, Japan). […]

[3] = system: AP-1 transactivation; conditions: cited from earlier work
[4] = system: LLC-PK1 cells; conditions: 50 μM U0126 and 1% DMSO in DMEM-HG, 0 day to sixth day
Method: On each transwell filter unit, 2×10^6 Lewis-lung cancer porcine kidney (LLC-PK1) cells, which were cryopreserved porcine proximal renal tubular epithelial cell lines, were seeded. […] The LLC-PK1 cells on 0 day, the first day, the second day, the third day, and the sixth day after seeding were colored with trypan blue and then measured for number for each group. The LLC-PK1 cells were gently washed with a sterilized PBS solution containing no magnesium or calcium and were then trypsin-treated with 1 ml of a trypsin-EDTA solution at 37° C. for 15 minutes. The treated cells (1 ml) were added to 4 ml of DMEM, were colored with trypan blue, and were then measured for number with a hemocytometer. Measurement was performed three times for each group.

[5] = system: MEN-1 and MEK-2; conditions: cited from earlier work
[6] = system: LLC-PK1 cells; conditions: DMEM medium containing 50 μg/ml U0126 for two weeks
Source text: In both groups, the medium was circulated outside the hollow fibers of the module in a closed system. […] On the fourth day after culture, three of the modules of each group were fixed with glutaraldehyde and were then observed in vertical cross section by scanning electron microscopy (SEM).

[7] = system: LLC-PK1 cells
Method: In lumens of hollow fibers made of an ethylene-vinyl alcohol (EVAL) copolymer, which forms membranes placed in mini-modules (a membrane area of 65 cm^2), 2×10^8 […] (LLC-PK1) cells, which were porcine proximal renal tubular epithelial cell lines, were seeded. The cells were cultured in such a manner that a DMEM-HG medium was circulated inside and outside the hollow fibers at a rate of 0.25 ml/min. In this operation, the transmembrane pressure was maintained at zero. […] The leakage of urea nitrogen, the leakage of creatinine, the amount of reabsorbed glucose, and the amount of reabsorbed Na^+ were measured for 24 hours.
Method of measuring absorption and leakage: the absorption and leakage are calculated using the following formula:
Absorption rate (leaking rate)=(C0×V0−CI×(VI−VR))/C2V2
wherein C0 represents the concentration of a substance in a discharged external solution, V0 represents the volume of the discharged external solution, CI represents the concentration of the substance in a fed external solution, VI represents the volume of the fed external solution, VR represents the volume of the external solution remaining outside the hollow fibers at the end of an experiment, C2 represents the concentration of the substance in a fed internal solution, and V2 represents the volume of the fed internal solution.

[8] = system: LLC-PK1 cells; conditions: 1% DMSO, DMEM-HG, 0 day to third day
Method: On each 6-well plate, 5×10^5 LLC-PK1 cells were seeded. […] Furthermore, two groups of the cells cultured in (4) a DMEM-HG medium and (5) a DMEM-HG medium containing 1% DMSO were checked. The cells on 0 day, the first day, the second day, and the third day after seeding were colored with trypan blue and then measured for number.

[9] = 50 μM U0126, days 3-4, mean ± SEM, n = 4

Row | Structure (SMILES) | contact inhibition of MDCK cells [1] | activated ERK1/2 ([2]; 50 μM U0126 and 1% DMSO, first, second and third day) | activated ERK1/2 after replacing the medium with U0126-free DMEM-HG ([2]; sixth day, three days after removal of U0126) | AP-1 transactivation [3] | change in number of LLC-PK1 cells [4] | inhibition of MEK-1 and MEK-2 [5] | maintenance of confluent monolayer in hollow fibers (SEM), FIG. 5 legend [6] | amount of reabsorbed Na+ compared with control group ([7]; 50 μM U0126) | amount of reabsorbed glucose compared with control group ([7]; 50 μM U0126) | leakage of creatinine (Cr) compared with control group ([7]; 50 μM U0126) | leakage of urea nitrogen (UN) compared with control group ([7]; 50 μM U0126) | Leakage Cr [7, 9] [%] | Leakage UN [7, 9] | Reabsorption Glucose [7, 9] [mg/day] | Reabsorption Na+ [7, 9] | change in number of LLC-PK1 cells ([8]; 10 μM) | change in number of LLC-PK1 cells ([8]; 30 μM) | change in number of LLC-PK1 cells ([8]; 50 μM)
1 | COc1cccc(-c2cc(=O)c3ccccc3o2)c1N [PD-98059] | restoring the contact inhibition |  |  |  |  |  |  |  |  |  |  |  |  |  |  |  |  | 
2 | N#CC(=C(N)Sc1ccccc1N)C(C#N)=C(N)Sc1ccccc1N [U0126, 1,4-diamino-2,3-dicyano-1,4-bis[2-aminophenylthio]butadiene] | restoring the contact inhibition | suppressed | Activated ERK1/2 is expressed | suppressor of AP-1 transactivation | prevented from significantly increasing in number | direct inhibition | confluent monolayers are substantially maintained | significantly greater | greater than that in the control group, though there is no significant difference | less than that in the control group, though there is no significant difference | significantly less | 3.3 ± 0.5 | 3.6 ± 0.7^b % | 63.9 ± 19.7 | 1.26 ± 0.10^b mEq/day | not sufficiently prevented from increasing in number | clearly prevented from proliferating | clearly prevented from proliferating

Source: patent US20090209019A1, “Bioartificial Renal Tubule” (TOKAI UNIVERSITY EDUCATIONAL SYSTEM, priority 2006, published 2009)
